Patent US20230372282A1, “METHOD FOR TREATEING OR […] OPTIC NEUROPATHY” (TZU CHI UNIVERSITY, priority 2022, published 2023)

What was measured:
[1] = system: retinal ganglion cells (RGCs); experiment: Retrograde labeling of RGCs with FluoroGold: RGC density and survival after AION induction; type: in vivo, rat
Procedure: (§1) Adult male Wistar rats of 4 to 6 weeks of age (weighing 100-125 g) were used in the animal model of ischemic optic neuropathy and were divided into three groups: the sham group, the group administered with PBS following ischemic optic neuropathy injury, and the group with ischemic optic neuropathy injury accompanied by intraperitoneal injection of BP at 10 mg/kg for 7 consecutive days. The rats were housed in an animal room having a 12-hour light/dark cycle (the light cycle time is from 7 a.m. to 7 p.m.) with temperature controlled at 23° C. and humidity controlled at 55%, and supplied with filtered sterilized water and general rodent feed. During the experiment, general anesthesia of rats was performed by intramuscular injection of ketamine at 100 mg/kg and xylazine at 10 mg/kg. Local anesthesia was performed by using 0.5% Alcaine, and mydriasis was performed by administering Mydrin-P. To sacrifice the rats, carbon dioxide at a filling rate of 5 L/min was injected so that the volume of carbon dioxide was 20% of that of the cage, thereby achieving the main goal of reducing animal suffering.
(§2) Firstly, under local anesthesia, rats were administrated with Alcaine and Mydrin-P eye drops to induce mydriasis. Subsequently, the rats were intravenously injected with rose bengal (2.5 mM dissolved in PBS at pH 7.4) at 1 mL/kg, and immediately irradiated with 12 pulses (once per second) of argon green laser (wavelength: 532 nm, size: […], power: 80 mW) to excite various parts of the optic disc. In addition, the laser was focused on the optic disc by an ophthalmoscope. Then, Tobradex eye ointment was applied evenly to the rats' eyes. Finally, the physical health of the rats was taken care of daily until the end of the study.
Retrograde labeling was performed three weeks after the rats were AION induced. […] One week after labeling, the rats were sacrificed and the eyeballs were carefully removed from the […] and fixed in 10% formalin for 2 hours. The entire retina was placed flat on a slide and paired with a filter set (excitation filter: 350-400 nm; radiation filter: 515 nm) and observed for morphology under a fluorescence microscope. The region with a radius of 1 mm from the center of the retina is defined as the central region, and the region with a radius of 3 mm from the center is defined as the mid-peripheral region. Ten blocks (38,250 μm^2; 225 μm×170 μm) were randomly selected from the central region and the mid-peripheral region to estimate the density of RGCs to determine the survival rate of RGCs.
To investigate the effect of BP on RGC survival rates after AION induction, retrograde labeling was carried out using Fluorogold (FG). […]

rAION model [2] = experiment: Flash visual evoked potential (FVEP), P1-N2 amplitude after AION induction; type: in vivo, rat; settings: 28 days after AION induction, BP 10 mg/kg i.p. 7 days; PBS group 13.70±5.59, sham 33.63±8.30
Procedure: as §1, with “Local anesthesia was performed by using 0.5% Alcaine, and mydriasis was performed by administering Mydrin-P. To sacrifice the rats, carbon dioxide at a filling rate of 5 L/min was injected so that the volume of carbon dioxide was 20% of that of the cage, thereby achieving the main goal of reducing animal suffering.” left out
Twenty-eight days after AION induction, electrodes were implanted into the primary visual cortex (anteroposterior: −8 mm; dorsoventral: ±3 mm) and frontal cortex (anteroposterior: +1 mm), while a ground electrode was implanted in the tail. […] The general visual function was evaluated by P1-N2 amplitude. […]

rAION model [3] = experiment: Optical coherence tomography (OCT) imaging of optic nerve width and RNFL after AION induction; type: in vivo, rat; settings: BP 10 mg/kg i.p.
Procedure: as §1, §2
On days 1, 3, 7, 14, and 28 after AION induction, the optic nerve width (ONW) and the coherence tomography image of the retinal nerve fiber layer (RNFL) were obtained using a Micron IV retinal microscope. The vertical resolution and horizontal resolution of the imaging system were set to be 1.8 μm and 3 μm, respectively, to provide a 3.2 mm field of view and 1.2 mm depth of field for the retina. The cornea was moistened with Methocel 2%. The Micron eyepiece was glued to be in direct contact with the eye. To allow vertical light penetration through the cornea, the retinal nerve fiber layer and the Bruch's membrane opening (ONW) were imaged with circular and linear scans, respectively, with an average of 50 frames per scan.
The optic nerve width (ONW) and retinal nerve fiber layer (RNFL) thickness were measured on days 1, 3, 7, 14, and 28 using optical coherence tomography (OCT) imaging in the sham group, PBS-treated group, and BP-treated group. As shown in FIG. 5A and FIG. 5B, after AION induction, optic disc swelling can clearly observed in the acute onset stage, and it was improved by administration of BP on days 3, 7 and 28 (311.95±23.21 μm vs. 469.58±29.35 μm, 259.35±33.73 μm vs. 329±25.73 μm, 273.71±23.22 μm vs. 300.73±26.41 μm, respectively). Compared with the PBS-treated group, BP was efficient in maintaining the area of the RNFL (0.089±0.0027 mm^2 vs. 0.08±0.0028 mm^2, 0.074±0.0089 mm^2 vs. 0.047±0.0042 mm^2 respectively) on days 14 and 28.

RGC layer = experiment: TUNEL assay of apoptotic cells in the RGC layer; type: in vivo, rat; settings: rAION rats, BP 10 mg/kg i.p. 7 days; PBS group 11.2±2.8, sham 2.8±1.9
Procedure: as §1, with “suffering. […]” for “suffering.”
Apoptotic cells in the ganglion cell layer (GCL) were detected using TUNEL assay according to the manufacturer's protocol. TUNEL-positive cells were calculated manually based on at least 6 retinal sections per eyeball in three groups (n=6 for each group). […]

ED1+ macrophages = experiment: Immunohistochemistry of ED1+ macrophage infiltration in the optic nerve; type: in vivo, rat; settings: rAION rats, BP 10 mg/kg i.p. 7 days; PBS group 166.4±19.3, sham 8.7±4.8
Procedure: as §1, with “Local anesthesia was performed by using 0.5% Alcaine, and mydriasis was performed by administering Mydrin-P. To sacrifice the rats, carbon dioxide at a filling rate of 5 L/min was injected so that the volume of carbon dioxide was 20% of that of the cage, thereby achieving the main goal of reducing animal suffering.” left out
(§3) First, vertical-sections of the ON were blocked with 2% bovine serum albumin (BSA) containing 0.3% triton X-100 for 1 hour. […] Fluorescence photographs of the sections of the ON tissue were taken at 10× magnification and 20× magnification using the Zeiss LSM 900 confocal system. The 20× magnified image of ED1^+ cells was analyzed using ImageJ software for quantification of exogenous macrophages. […]

CNPase = experiment: Immunohistochemistry of CNPase in the optic nerve (myelin integrity); type: in vivo, rat; settings: rAION rats, BP 10 mg/kg i.p. 7 days; after AION induction 4.24±0.71, sham 11.06±2.60
Procedure: as §1, with “Local anesthesia was performed by using 0.5% Alcaine, and mydriasis was performed by administering Mydrin-P. To sacrifice the rats, carbon dioxide at a filling rate of 5 L/min was injected so that the volume of carbon dioxide was 20% of that of the cage, thereby achieving the main goal of reducing animal suffering.” left out
as §3

NF-κB signaling pathway = experiment: Western blotting of retinal protein, NF-κB-related pathway; type: in vivo; settings: rat retina, rAION, compared with AION+PBS group
Procedure: as §1, §2
The detailed process of Western blotting process was described in the inventors' previous articles Cell Death Dis. 2017, 8, e3172 and Nat. Med. 2015, 21, 677-687. The total protein of the rat retina was extracted with modified radio immunoprecipitation assay (RIPA) buffer, and the protein concentrations were analyzed using the bicinchoninic acid (BCA) protein assay kit. […] The protein signal on the membrane was detected using an enhanced chemiluminescence (ECL) kit. The signal strength of the bands was quantified using ImageJ software.
Previous studies have pointed out that the upregulation of reactive oxygen species (ROS) in ischemic injury induces inflammatory response through the IκBα-NF-κB signaling pathway. Here, protein expression of the NF-κB-related pathway was evaluated to investigate the molecular mechanisms involved in the protection of nerves by administration of BP. […]

[4] = rodent model of NAION, BP 10 mg/kg i.p. 7 days

## CCC/C=C1\OC(=O)c2ccccc21 [BP, n-butylidenephthalide]
[1]; rAION Wistar rats, BP 10 mg/kg intraperitoneal for 7 consecutive days, FluoroGold labeling 3 weeks after induction, sacrifice 1 week later, PBS group 935±514, sham 2771±453
  density of RGCs in the central retina: 2172±458 RGCs per mm^2
[1]; rAION Wistar rats, BP 10 mg/kg intraperitoneal for 7 consecutive days, PBS group 750±452, sham 2236±487
  density of RGCs in the mid-peripheral retina: 1962±505 RGCs per mm^2
[1]; [4]
  improvement of RGC survival rate in the central retina: 44.7%
  improvement of RGC survival rate in the mid-peripheral retina: 54.2%
rAION model [2]
  FVEP P1 to N2 amplitude: 22.01±7.03 μV
rAION model [3]; day 3 after AION induction, vs. 469.58±29.35 PBS group
  optic nerve width (ONW): 311.95±23.21 μm
rAION model [3]; day 7 after AION induction, vs. 329±25.73 PBS group
  optic nerve width (ONW): 259.35±33.73 μm
rAION model [3]; day 14 after AION induction, vs. 0.08±0.0028 PBS group
  area of the RNFL: 0.089±0.0027 mm^2
rAION model [3]; day 28 after AION induction, vs. 0.047±0.0042 PBS group
  area of the RNFL: 0.074±0.0089 mm^2
rAION model [3]; day 28 after AION induction, vs. 300.73±26.41 PBS group
  optic nerve width (ONW): 273.71±23.22 μm
RGC layer
  TUNEL-positive cells in the RGC layer per high powered field (HPF): 3.7±1.5
ED1+ macrophages
  ED1-positive cells in the optic nerve per high powered field: 80.1±28.9
CNPase
  expression of CNPase in the optic nerve (IHC signal): 7.20±1.22
NF-κB signaling pathway
  expression of IL-1β: reduced expression
  expression of NLRP3: reduced expression
  phosphorylation of IκBα (phospho-IκBα expression level): significantly inhibited phosphorylation
  phosphorylation of NF-κB (phospho-NF-κB expression level): significantly inhibited phosphorylation
